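Briefly, cells in 96-well plates were exposed to five compound concentrations for 48 h, and endpoints were estimated by linear interpolation. At the TGI there is no net growth.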
Each molecule was assayed on SK-MEL-28 melanoma (assay: NCI-60 cell line screen, 48 h).

`CN(C)C(c1ccccc1)C(O)c1ccccc1` (stereo not drawn) and `FC(F)(F)c1nc(-c2ccccc2)oc1Sc1nnc(Sc2oc(-c3ccccc3)nc2C(F)(F)F)s1` cannot be ordered by TGI: greater than 100 µM for the first, greater than 93.8 µM for the second.

`O=C(Nc1ccc(Cl)cc1Cl)C(=O)C(C(=O)c1ccncc1)C1OC(=O)c2ccccc21` (stereo not drawn) gave a TGI greater than 100 µM.

The molecules below were run on MDA-MB-231 breast (assay: NCI-60 cell line screen, 48 h).

For `c1cc2c(ncc3cscc32)s1`, the TGI was greater than 100 µM.

Each molecule was assayed on RXF 393 renal (assay: NCI-60 cell line screen, 48 h).

Going from `c1cc2c(ncc3cscc32)s1` to `FC(F)(F)c1nc(-c2ccccc2)oc1Sc1nnc(Sc2oc(-c3ccccc3)nc2C(F)(F)F)s1`, the TGI falls from greater than 100 µM to 49.3 µM.

`CN(C)C(c1ccccc1)C(O)c1ccccc1` (stereo not drawn) and `O=C(Nc1ccc(Cl)cc1Cl)C(=O)C(C(=O)c1ccncc1)C1OC(=O)c2ccccc21` (stereo not drawn) cannot be ordered by TGI: greater than 100 µM for the first, greater than 100 µM for the second.

These molecules were tested on SNB-78 CNS (assay: NCI-60 cell line screen, 48 h).

`c1cc2c(ncc3cscc32)s1` and `FC(F)(F)c1nc(-c2ccccc2)oc1Sc1nnc(Sc2oc(-c3ccccc3)nc2C(F)(F)F)s1` cannot be ordered by TGI: greater than 100 µM for the first, greater than 74 µM for the second.

`CN(C)C(c1ccccc1)C(O)c1ccccc1` (stereo not drawn) and `O=C(Nc1ccc(Cl)cc1Cl)C(=O)C(C(=O)c1ccncc1)C1OC(=O)c2ccccc21` (stereo not drawn) cannot be ordered by TGI: greater than 100 µM for the first, greater than 100 µM for the second.

The molecules below were run on HOP-18 NSCLC (assay: NCI-60 cell line screen, 48 h).

`CN(C)C(c1ccccc1)C(O)c1ccccc1` (stereo not drawn) and `FC(F)(F)c1nc(-c2ccccc2)oc1Sc1nnc(Sc2oc(-c3ccccc3)nc2C(F)(F)F)s1` cannot be ordered by TGI: greater than 100 µM for the first, greater than 100 µM for the second.

In the case of `O=C(Nc1ccc(Cl)cc1Cl)C(=O)C(C(=O)c1ccncc1)C1OC(=O)c2ccccc21` (stereo not drawn), the TGI is reported as greater than 100 µM.

The molecules below were run on SF-268 CNS (assay: NCI-60 cell line screen, 48 h).

`c1cc2c(ncc3cscc32)s1` and `FC(F)(F)c1nc(-c2ccccc2)oc1Sc1nnc(Sc2oc(-c3ccccc3)nc2C(F)(F)F)s1` cannot be ordered by TGI: greater than 100 µM for the first, greater than 100 µM for the second.

`CN(C)C(c1ccccc1)C(O)c1ccccc1` (stereo not drawn) and `O=C(Nc1ccc(Cl)cc1Cl)C(=O)C(C(=O)c1ccncc1)C1OC(=O)c2ccccc21` (stereo not drawn) cannot be ordered by TGI: greater than 100 µM for the first, greater than 100 µM for the second.

These molecules were tested on 786-0 renal (assay: NCI-60 cell line screen, 48 h).

Compared with `c1cc2c(ncc3cscc32)s1`, `FC(F)(F)c1nc(-c2ccccc2)oc1Sc1nnc(Sc2oc(-c3ccccc3)nc2C(F)(F)F)s1` is lower in TGI: greater than 100 µM for the first, 74 µM for the second.

`CN(C)C(c1ccccc1)C(O)c1ccccc1` (stereo not drawn) and `O=C(Nc1ccc(Cl)cc1Cl)C(=O)C(C(=O)c1ccncc1)C1OC(=O)c2ccccc21` (stereo not drawn) cannot be ordered by TGI: greater than 100 µM for the first, greater than 100 µM for the second.

These molecules were tested on CCRF-CEM leukemia (assay: NCI-60 cell line screen, 48 h).

Compared with `c1cc2c(ncc3cscc32)s1`, `FC(F)(F)c1nc(-c2ccccc2)oc1Sc1nnc(Sc2oc(-c3ccccc3)nc2C(F)(F)F)s1` is lower in TGI: greater than 100 µM for the first, 34.8 µM for the second.

`CN(C)C(c1ccccc1)C(O)c1ccccc1` (stereo not drawn) and `O=C(Nc1ccc(Cl)cc1Cl)C(=O)C(C(=O)c1ccncc1)C1OC(=O)c2ccccc21` (stereo not drawn) cannot be ordered by TGI: greater than 100 µM for the first, greater than 100 µM for the second.

The molecules below were run on COLO 205 colon (assay: NCI-60 cell line screen, 48 h).

`c1cc2c(ncc3cscc32)s1` and `FC(F)(F)c1nc(-c2ccccc2)oc1Sc1nnc(Sc2oc(-c3ccccc3)nc2C(F)(F)F)s1` cannot be ordered by TGI: greater than 100 µM for the first, greater than 69.8 µM for the second.

`CN(C)C(c1ccccc1)C(O)c1ccccc1` (stereo not drawn) and `O=C(Nc1ccc(Cl)cc1Cl)C(=O)C(C(=O)c1ccncc1)C1OC(=O)c2ccccc21` (stereo not drawn) cannot be ordered by TGI: greater than 100 µM for the first, greater than 100 µM for the second.

The molecules below were run on SF-295 CNS (assay: NCI-60 cell line screen, 48 h).

`c1cc2c(ncc3cscc32)s1` and `FC(F)(F)c1nc(-c2ccccc2)oc1Sc1nnc(Sc2oc(-c3ccccc3)nc2C(F)(F)F)s1` cannot be ordered by TGI: greater than 100 µM for the first, greater than 100 µM for the second.

`CN(C)C(c1ccccc1)C(O)c1ccccc1` (stereo not drawn) and `O=C(Nc1ccc(Cl)cc1Cl)C(=O)C(C(=O)c1ccncc1)C1OC(=O)c2ccccc21` (stereo not drawn) cannot be ordered by TGI: greater than 100 µM for the first, greater than 100 µM for the second.

These molecules were tested on HCT-15 colon (assay: NCI-60 cell line screen, 48 h).

`c1cc2c(ncc3cscc32)s1` and `FC(F)(F)c1nc(-c2ccccc2)oc1Sc1nnc(Sc2oc(-c3ccccc3)nc2C(F)(F)F)s1` cannot be ordered by TGI: greater than 100 µM for the first, greater than 59 µM for the second.

`CN(C)C(c1ccccc1)C(O)c1ccccc1` (stereo not drawn) and `O=C(Nc1ccc(Cl)cc1Cl)C(=O)C(C(=O)c1ccncc1)C1OC(=O)c2ccccc21` (stereo not drawn) cannot be ordered by TGI: greater than 100 µM for the first, greater than 100 µM for the second.

These molecules were tested on LOX IMVI melanoma (assay: NCI-60 cell line screen, 48 h).

Compared with `c1cc2c(ncc3cscc32)s1`, `FC(F)(F)c1nc(-c2ccccc2)oc1Sc1nnc(Sc2oc(-c3ccccc3)nc2C(F)(F)F)s1` is lower in TGI: greater than 100 µM for the first, 24.9 µM for the second.

`CN(C)C(c1ccccc1)C(O)c1ccccc1` (stereo not drawn) and `O=C(Nc1ccc(Cl)cc1Cl)C(=O)C(C(=O)c1ccncc1)C1OC(=O)c2ccccc21` (stereo not drawn) cannot be ordered by TGI: greater than 100 µM for the first, greater than 100 µM for the second.

What follows are molecules tested on M19-MEL melanoma (assay: NCI-60 cell line screen, 48 h).

`c1cc2c(ncc3cscc32)s1` and `FC(F)(F)c1nc(-c2ccccc2)oc1Sc1nnc(Sc2oc(-c3ccccc3)nc2C(F)(F)F)s1` cannot be ordered by TGI: greater than 100 µM for the first, greater than 57.8 µM for the second.

`CN(C)C(c1ccccc1)C(O)c1ccccc1` (stereo not drawn) and `O=C(Nc1ccc(Cl)cc1Cl)C(=O)C(C(=O)c1ccncc1)C1OC(=O)c2ccccc21` (stereo not drawn) cannot be ordered by TGI: greater than 100 µM for the first, greater than 100 µM for the second.

What follows are molecules tested on HL-60(TB) leukemia (assay: NCI-60 cell line screen, 48 h).

Compared with `c1cc2c(ncc3cscc32)s1`, `FC(F)(F)c1nc(-c2ccccc2)oc1Sc1nnc(Sc2oc(-c3ccccc3)nc2C(F)(F)F)s1` is lower in TGI: greater than 100 µM for the first, 19.7 µM for the second.

`CN(C)C(c1ccccc1)C(O)c1ccccc1` (stereo not drawn) and `O=C(Nc1ccc(Cl)cc1Cl)C(=O)C(C(=O)c1ccncc1)C1OC(=O)c2ccccc21` (stereo not drawn) cannot be ordered by TGI: greater than 100 µM for the first, greater than 100 µM for the second.

The molecules below were run on OVCAR-5 ovarian (assay: NCI-60 cell line screen, 48 h).

`c1cc2c(ncc3cscc32)s1` and `FC(F)(F)c1nc(-c2ccccc2)oc1Sc1nnc(Sc2oc(-c3ccccc3)nc2C(F)(F)F)s1` cannot be ordered by TGI: greater than 100 µM for the first, greater than 100 µM for the second.

For `O=C(Nc1ccc(Cl)cc1Cl)C(=O)C(C(=O)c1ccncc1)C1OC(=O)c2ccccc21` (stereo not drawn), the TGI was greater than 100 µM.

These molecules were tested on MDA-MB-435 (assay: NCI-60 cell line screen, 48 h).

Work on `c1cc2c(ncc3cscc32)s1` yielded a TGI greater than 100 µM.

What follows are molecules tested on SR leukemia (assay: NCI-60 cell line screen, 48 h).

Compared with `c1cc2c(ncc3cscc32)s1`, `FC(F)(F)c1nc(-c2ccccc2)oc1Sc1nnc(Sc2oc(-c3ccccc3)nc2C(F)(F)F)s1` is lower in TGI: greater than 100 µM for the first, 41 µM for the second.

Work on `O=C(Nc1ccc(Cl)cc1Cl)C(=O)C(C(=O)c1ccncc1)C1OC(=O)c2ccccc21` (stereo not drawn) yielded a TGI greater than 100 µM.
